Results taken from article PMC12400318 (Biochemical Journal, 2025).

Columns and labels:
[1] = molecular target: T1, T. melanesiensis CtfAB (T. mel CtfAB; WT-CtfAB) (Thermosipho melanesiensis, UniProt A6LM39+A6LM40, A6LM39:E46D); assay: hydrolase activity assay; type: biochemical; parameters: gene Tmel_1136; co-expressed in E. coli Rosetta 2(DE3)pLysS; N-terminal 6xHis on CtfA, untagged CtfB; subunits Mr 23-25 kDa; heterotetramer (two CtfA-CtfB heterodimers) in crystals; conditions: CoA hydrolase instead of transferase; acetate not required
T1 sequence (A6LM39 entry or part of it E46D, one chain of several): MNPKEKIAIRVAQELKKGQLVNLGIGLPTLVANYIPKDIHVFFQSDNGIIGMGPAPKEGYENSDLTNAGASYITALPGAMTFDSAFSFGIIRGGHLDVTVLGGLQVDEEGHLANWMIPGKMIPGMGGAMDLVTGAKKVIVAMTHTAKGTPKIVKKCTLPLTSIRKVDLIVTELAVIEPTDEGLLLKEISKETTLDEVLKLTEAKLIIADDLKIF

[2] = molecular target: T2, T. melanesiensis CtfAB (T. mel CtfAB; WT-CtfAB) (Thermosipho melanesiensis, UniProt A6LM39+A6LM40, A6LM39:F42T/A6LM39:S45C); assay: X-ray crystal structure, […] Å; type: binding
T2 construct: gene Tmel_1136; co-expressed in E. coli Rosetta 2(DE3)pLysS; N-terminal 6xHis on CtfA, untagged CtfB; subunits Mr 23-25 kDa; heterotetramer (two CtfA-CtfB heterodimers) in crystals
T2 sequence (A6LM39 entry or part of it F42T/S45C, one chain of several): as the sequence (A6LM39 entry or part of it E46D, one chain of several) above, with F42T, S45C, D46E counted along it

[3] = molecular target: T3, T. melanesiensis CtfAB (T. mel CtfAB; WT-CtfAB) (Thermosipho melanesiensis, UniProt A6LM39+A6LM40); assay: acetoacetyl-CoA Mg-enolate consumption at […] nm; global ping-pong bi-bi fit with inhibition; type: biochemical; parameters: gene Tmel_1136; co-expressed in E. coli Rosetta 2(DE3)pLysS; N-terminal 6xHis on CtfA, untagged CtfB; subunits Mr 23-25 kDa; heterotetramer (two CtfA-CtfB heterodimers) in crystals; conditions: read-out: Ki,Q
T3 sequence (A6LM40 1-217): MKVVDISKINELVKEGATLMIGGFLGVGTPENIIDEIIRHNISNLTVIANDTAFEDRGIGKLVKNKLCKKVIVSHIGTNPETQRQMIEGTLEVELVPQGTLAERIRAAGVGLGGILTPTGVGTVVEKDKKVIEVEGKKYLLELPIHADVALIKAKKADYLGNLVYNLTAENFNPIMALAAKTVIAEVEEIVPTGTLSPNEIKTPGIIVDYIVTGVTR
T3 sequence (A6LM39 1-214): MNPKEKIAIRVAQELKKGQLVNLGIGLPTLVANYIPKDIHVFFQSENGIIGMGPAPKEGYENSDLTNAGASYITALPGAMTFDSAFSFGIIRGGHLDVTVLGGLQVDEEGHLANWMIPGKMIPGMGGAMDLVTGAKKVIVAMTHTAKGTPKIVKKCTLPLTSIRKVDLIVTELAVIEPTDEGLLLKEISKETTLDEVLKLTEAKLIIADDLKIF

[4] = molecular target: T4, T. melanesiensis CtfAB (T. mel CtfAB; WT-CtfAB) (Thermosipho melanesiensis, UniProt A6LM39+A6LM40, A6LM39:E46S); conditions: acetate from crystallisation buffer; second acetate in place of the catalytic glutamate carboxylate
T4 construct: gene Tmel_1136
T4 sequence (A6LM39 1-214 E46S, one chain of several): as the sequence (A6LM39 entry or part of it E46D, one chain of several) above, with D46S counted along it

[5] = molecular target: T1, T. melanesiensis CtfAB (T. mel CtfAB; WT-CtfAB); parameters: gene Tmel_1136; conditions: acetate from crystallisation buffer; pocket next to residue 46
[6] = molecular target: T3, T. melanesiensis CtfAB (T. mel CtfAB; WT-CtfAB); parameters: gene Tmel_1136; conditions: rate-equation constant of substrate B (acetate) in the forward fit, not a separate inhibition assay; 100 mM Tris-HCl, 40 mM MgCl2, 5% glycerol, pH 7.5, 65 °C
[7] = substrate: CC(=O)O; assay: purified protein; conditions: forward reaction, co-substrate acetoacetyl-CoA (0.025-0.4 mM), 100 mM Tris-HCl, 40 mM MgCl2, 5% glycerol, pH 7.5, 65 °C
[8] = substrate: CC(=O)CC(=O)O; assay: purified protein; type: biochemical, Thermosipho melanesiensis; conditions: reverse reaction, co-substrate acetyl-CoA (0.033-0.4 mM), 100 mM Tris-HCl, 40 mM MgCl2, 5% glycerol, pH 7.5, 65 °C
[9] = substrate: CC(=O)CC(=O)SCCNC(=O)CCNC(=O)[C@H](O)C(C)(C)COP(=O)(O)OP(=O)(O)OC[C@H]1O[C@@H](n2cnc3c(N)ncnc32)[C@H](O)[C@@H]1OP(=O)(O)O; assay: purified protein; type: biochemical, Thermosipho melanesiensis; conditions: forward reaction, co-substrate acetate (18.75-375 mM), 100 mM Tris-HCl, 40 mM MgCl2, 5% glycerol, pH 7.5, 65 °C, abstract prints 135 μM
[10] = substrate: CC(=O)SCCNC(=O)CCNC(=O)[C@H](O)C(C)(C)COP(=O)(O)OP(=O)(O)OC[C@H]1O[C@@H](n2cnc3c(N)ncnc32)[C@H](O)[C@@H]1OP(=O)(O)O; assay: purified protein; type: biochemical, Thermosipho melanesiensis; conditions: reverse reaction, co-substrate acetoacetate (3.75-18.75 mM), 100 mM Tris-HCl, 40 mM MgCl2, 5% glycerol, pH 7.5, 65 °C
[11] = molecular target: the molecule itself; assay: crystal structure; hanging drop, purified co-expressed CtfAB 5-6 mg/mL in 10 mM MOPS, 5% glycerol, 50 mM Na2SO4, 50 mM NaCl, 1 mM DTT, pH 7.5; reservoir 100 mM Na acetate pH 4.9-5.5, 6-10% PEG 3350; F42T/S45C co-crystal with 5-10 mM acetyl-CoA; space group P4(1)2(1)2

CC(=O)CC(=O)SCCNC(=O)CCNC(=O)[C@H](O)C(C)(C)COP(=O)(O)OP(=O)(O)OC[C@H]1O[C@@H](n2cnc3c(N)ncnc32)[C@H](O)[C@@H]1OP(=O)(O)O [acetoacetyl-CoA]
hydrolase activity assay [1]: converted the transferase into a hydrolase, with activity confirmed on acetoacetyl-CoA

CC(=O)SCCNC(=O)CCNC(=O)[C@H](O)C(C)(C)COP(=O)(O)OP(=O)(O)OC[C@H]1O[C@@H](n2cnc3c(N)ncnc32)[C@H](O)[C@@H]1OP(=O)(O)O [acetyl-CoA]
X-ray crystal structure, 1.9 Å ([2]; co-crystal with 5-10 mM acetyl-CoA, site in CtfB, pantetheine part partly disordered): A co-crystal of the mutant CtfB F42T/S45C and acetyl-CoA was grown
Ki [3]: 1270 ± 276 µM

CC(=O)O [acetate]
X-ray crystal structure, 1.9 Å ([2]; acetate from crystallisation buffer (100 mM Na acetate), two molecules near E46, acetyl-CoA also bound): difference density for two acetate molecules in the CtfAB F42TS45C-CoA structure
X-ray crystal structure, 2.6 Å [4]: a second acetate molecule binds in the space normally occupied by the catalytic glutamate
X-ray crystal structure, 2.2 Å [5]: Acetate molecules were identified in every CtfAB structure in the substrate-binding pocket
Ki,B [6]: 24700 ± 16600 µM

B1: T. melanesiensis CtfAB (T. mel CtfAB; WT-CtfAB) (Thermosipho melanesiensis BI429) (protein)
chain 1: T3 sequence (A6LM40 1-217)
chain 2: T3 sequence (A6LM39 1-214)
notes: co-expressed in E. coli Rosetta 2(DE3)pLysS; N-terminal 6xHis on CtfA, untagged CtfB; subunits Mr 23-25 kDa; heterotetramer (two CtfA-CtfB heterodimers) in crystals
Km [7]: 84700 ± 15600 µM
Km [8]: 1655 ± 331 µM
Km [9]: 138 ± 28.8 µM
Km [10]: 322 ± 41 µM

B2: Thermosipho melanesiensis CtfAB heterodimer (His6-CtfA with CtfB), wild type (complex)
chain 1: T3 sequence (A6LM40 1-217)
chain 2: T3 sequence (A6LM39 1-214)
notes: CoA transferase subunit A (CtfA) of Thermosipho melanesiensis, Tmel_1136, WP_012057350; as the chain of m1; 3-oxoacid CoA-transferase subunit B (CtfB) of Thermosipho melanesiensis, Tmel_1135, WP_012057349; as the chain of m2; Used for the self-association of the CtfAB heterodimer into a heterotetramer and higher oligomers; also called T. mel CtfAB; WT-CtfAB; not shown: His6, N-terminal, kept
stoichiometry N [11]: 2 heterodimers in the heterotetramer
